Data: US6528524B2, “Pharmaceutical compositions containing cinchonine dichlorhydrate” (Debiopharm SA, priority 1997, dated 2003)
Where a name gives a salt, the structure may show the parent alone. Read-outs that look alike come from different tables or passages of the source.

Experiments:
[1] = In vivo bioavailability / pharmacokinetic study in Beagle dogs; set-up: C20 min: unit not given here; conditions: for C20 min / T1/2 a / half-life: dose 50 mg/kg; for C20 min: blood concentration 20 minutes after administration; for T1/2 a / half-life: absorption; for half-life: Beagle, dog, blood, read-out: T1/2 a
Description: These tests were performed in four “Beagle” dogs, two of which were male and two female.
Each dog received, on day 1, a dose of 50 mg per kg of cinchonine dihydrochloride and, on day 8, an equivalent dose of cinchonine monohydrochloride. Blood samples were taken at regular intervals after each administration.

[2] = Stability of cinchonine dihydrochloride in aqueous solution (NMR spectra day 0 vs day 30); type: physicochemical; conditions: aqueous solution kept at ambient temperature and in the light for 30 days
Description: The ^1H and ^13C spectra were built up using samples of 100 mg and 20 mg respectively in 0.5 ml of deuterated methanol.
The NMR spectra were obtained using a Bruker DRX 500 spectrometer fitted with a so-called “reversible” sensor.
The aqueous solution was kept at ambient temperature and in the light for 30 days. After 30 days, the NMR spectra were recorded in the same way as above.

[3] = cited from earlier work
[4] = Beagle dog F2 (female), dihydrochloride
[5] = Beagle dog M1 (male), dihydrochloride
[6] = Beagle dog F1 (female), monohydrochloride
[7] = Beagle dog F2 (female), monohydrochloride
[8] = Beagle dog M1 (male), monohydrochloride
[9] = Beagle dog M2 (male), monohydrochloride

**Q.** With `C=C[C@H]1C[N@@]2CC[C@H]1C[C@@H]2[C@@H](O)c1ccnc2ccccc12` [CDH, cinchonine dihydrochloride] as the compound, how does the C20 min ([1]; Beagle dog F1 (female), dihydrochloride) read?
**A.** 2.05

**Q.** What about the T1/2 a [1, 4] of the same compound?
**A.** 20.4 s

**Q.** And the C20 min [1, 4]?
**A.** 3.68

**Q.** What about the T1/2 a [1, 5] of the same compound?
**A.** 15.6 s

**Q.** And the C20 min [1, 5]?
**A.** 0.23

**Q.** And the C20 min ([1]; Beagle dog M2 (male), dihydrochloride)?
**A.** 2.1

**Q.** And the “absorption time, compared with cinchonine monohydrochloride” value ([1]; Beagle dogs, 50 mg/kg)?
**A.** greater than that of cinchonine monohydrochloride

**Q.** And the “blood concentration 20 minutes after administration, compared with cinchonine monohydrochloride” value ([1]; Beagle dogs, 50 mg/kg)?
**A.** greater than that of cinchonine monohydrochloride

**Q.** What about the half-life ([1]; female, 50 mg/kg, Beagle dog F1 (female)) of the same compound?
**A.** 6 s

**Q.** And the half-life ([1]; male, 50 mg/kg, Beagle dog M2 (male))?
**A.** 23.4 s

**Q.** And the “Stability (NMR spectra on day 0 and day 30)” value ([2]; listed as Cinchonine dihydrochloride)?
**A.** remarkable stability

**Q.** And the “Stability (NMR spectra on day 0 and day 30)” value ([2]; listed as cinchonine dihydrochloride)?
**A.** unchanged

**Q.** With `C=C[C@H]1C[N@@]2CC[C@H]1C[C@@H]2[C@@H](O)c1ccnc2ccccc12` [CMH, cinchonine monohydrochloride, reference compound] as the compound, how does the T1/2 a [1, 6] read?
**A.** 3 s

**Q.** And the C20 min [1, 6]?
**A.** 1.04

**Q.** What about the T1/2 a [1, 7] of the same compound?
**A.** 6.6 s

**Q.** What about the C20 min [1, 7] of the same compound?
**A.** 1.66

**Q.** And the T1/2 a [1, 8]?
**A.** 3.6 s

**Q.** And the C20 min [1, 8]?
**A.** 0

**Q.** And the T1/2 a [1, 9]?
**A.** 14.4 s

**Q.** What about the C20 min [1, 9] of the same compound?
**A.** 0.25

**Q.** Which solubility in water [3] does the source give for `C=C[C@H]1C[N@@]2CC[C@H]1C[C@@H]2[C@@H](O)c1ccnc2ccccc12` [cinchonine] here?
**A.** very sparingly soluble in water
